From US20080167532A1, “ASSESSING CANCER TREATMENT RESPONSIVENESS” (Mayo Foundation for Medical Education and Research, priority 2006, published 2008)
Entries after “also recorded” stand apart in the source; their conditions may differ.

Columns and labels:
[1] = test system: DRO cells; experiment: Affymetrix Plus 2.0 array, nucleic acid expression in DRO cells in cell culture; assay type: cell-based, human; conditions: 10 nM single dose
Procedure: Affymetrix Plus 2.0 arrays were used to identify nucleic acids altered between control vehicle-treated and RS5444-treated ATC cells from cell culture and tumors implanted ectopically into athymic nude mice. Cells in culture were treated with a single dose of 10 nM RS5444 for either 2, 6, or 24 hours. Animals were treated with 0.025% RS5444 after implantation of 1×10^6 DRO cells. Animals were fed a diet including 0.025% RS5444 for 35 days, and tumor volume was measured weekly. Tumor tissues were removed, RNA was isolated, and nucleic acid expression was analyzed. Examples of some nucleic acids, the expression of which was altered in both the animal derived tumors and cells in culture, are presented in Table 1. Some of the nucleic acids regulated by PPARγ in ATC cells (e.g., BMP2, MMP14, ANGPTL4, and ITGA5) are secreted polypeptides (Table 1).

[2] = test system: DRO cells; experiment: Real-time PCR of RhoB and p21 RNA in DRO cells; assay type: cell-based, human; conditions: 10 nM vs DMSO, time course
Procedure: Experiments also were conducted to examine the expression of RhoB in response to treatment with a PPARγ agonist. Cells from the human ATC cell line, DRO, were treated at various time points during 48 hours with DMSO control (0.1%) or 10 nM RS5444. RhoB and p21^WAF1/CIP1 RNA levels were measured using real-time PCR. Data were normalized to DMSO untreated controls for each time point measured.
Total mRNA was isolated from cells using RNAqueous (Ambion) per the manufacturer's protocol followed by ethanol precipitation. Total RNA from normal thyroid tissue was extracted using TOTALLY RNA (Ambion) according to manufacturer's protocol followed by Chroma Spin Column 100 (BD Bioscience). Two-step quantitative reverse transcriptase-mediated real-time PCR (QPCR) was used to measure changes in mRNA levels of target genes in ATC cells. Total RNA was reverse transcribed using the High-Capacity cDNA Archive kit (Applied Biosystems) per the manufacturer's instructions. […] Forty amplification cycles were performed on the Applied Biosystems Prism 7900 sequence detector, with cycle threshold (Ct) values calculated using the Sequence Detection System software (SDS 2.2.2. Applied Biosystems) normalized against 18S rRNA levels. Fold change values either between treated (RS5444) and control samples were calculated using the ΔΔCt method (Livak and Schmittgen, Methods, 25:402-408 (2001)).

[3] = test system: DRO and ARO tumor tissues; experiment: Western blot of DRO and ARO tumor tissues from athymic nude mice; assay type: in vivo
Procedure: RhoB and p21^WAF1/CIP1 polypeptide expression also was examined in DRO and ARO tumor tissues removed from athymic nude mice following 35 days of treatment with vehicle control (−) or 0.025% RS5444 in the diet. Beta-actin was used as a normalization control to ensure even loading of total polypeptide in all lanes.
Suspensions of 1×10^6/0.1 mL DRO or ARO cells in RPMI medium were injected subcutaneously in one flank of 3 to 4 week old athymic female nude mice. Mice were changed to specialized diets 1 week after tumor implantation and randomly assigned to diets consisting of either 0.025% RS5444 or sham control (Research Diets). Mice weighed between 20-25 grams and consumed on average 4 grams of food per day (1 mg/day of RS5444). Tumors were measured every 3 to 4 days for 35 days with calipers and tumor volumes were calculated by the formula: 0.5236(a×b×c), where a is the shortest diameter, b is the diameter perpendicular to a, and c is the diameter height.
Cells were collected and lysed in RIPA buffer containing 50 mM Tris, 5 mM EDTA, 150 mM NaCl, 0.1% SDS, 0.5% Deoxycholate, 1% NP40, and protease inhibitor cocktail (Roche) followed by centrifugation. Excised tumor tissues were lysed in 50 mM Tris pH 8.0+1% SDS. Collected supernatants were, analyzed for protein concentration using Pierce's BCA assay, with 25 μg protein loaded per gel lane (Invitrogen) with later transfer to Immobilon-P membranes. The membranes were hybridized with antibodies (Santa Cruz, Cell Signaling, Sigma-Aldrich, St. Louis Mo.) as indicated overnight at 4° C. followed by treatment with species-specific horseradish peroxidase IgG (Jackson labs) for 45 minutes at room temperature. Detection was performed using Supersignal West Pico chemoluminescence kit (Pierce). Quantification of bands was performed in triplicate using Image Quant 5.2 (Molecular Dynamics, Sunnyvale Calif.).

[4] = DRO and ARO tumors, 0.025% in diet for 35 days

Structure (SMILES): Cc1cc(Oc2ccc3nc(COc4ccc(CC5SC(=O)NC5=O)cc4)n(C)c3c2)cc(C)c1N (stereo not drawn) [RS5444]
- Fold change in vitro, ADRB1 ([1]; ADRB1, 2 h): −3.3 fold
- Fold change in vitro, ADRB1 ([1]; ADRB1, 24 h): −2.2 fold
- Fold change in vitro, ANGPTL4 ([1]; ANGPTL4, 2 h): 5.3 fold
- Fold change in vitro, ANGPTL4 ([1]; ANGPTL4, 6 h): 4.9 fold
- Fold change in vitro, ANGPTL4 ([1]; ANGPTL4, 24 h): 8.4 fold
- Fold change in vitro, BMP2 ([1]; BMP2, 24 h): 2.5 fold
- Fold change in vitro, HR ([1]; 2 h): 2 fold
- Fold change in vitro, HR ([1]; 24 h): 2.3 fold
- Fold change in vitro, IL1B ([1]; IL1B, 24 h): 14.2 fold
- Fold change in vitro, ITGA5 ([1]; ITGA5, 24 h): 2.2 fold
- Fold change in vitro, LMAN1 ([1]; LMAN1, 6 h): −2 fold
- Fold change in vitro, MMP14 ([1]; MMP14, 2 h): 5.4 fold
- Fold change in vitro, MMP14 ([1]; MMP14, 24 h): 16.9 fold
- Fold change in vitro, RhoB ([1]; 2 h): 3.4 fold
- Fold change in vitro, RhoB ([1]; 6 h): 4.1 fold
- Fold change in vitro, RhoB ([1]; 24 h): 2.8 fold
- RhoB mRNA levels (real-time PCR) [2]: RhoB mRNA induction as early as 2 hours; also recorded: significantly elevated at 12 hours through 48 hours
- RhoB polypeptide in tumors (Western blot) ([3]; ATC tumors from mice, 4 weeks of 0.025% in diet): elevated
- RhoB polypeptide expression in tumors [3, 4]: elevated
- cyclin E levels in tumors [3, 4]: down-regulated
- p21WAF1/CIP1 polypeptide expression in tumors [3, 4]: elevated
